Laboratory results published in patent publication US6953786B2, “Compositions comprising plant-derived polyphenolic compounds and inhibitors of reactive oxygen species and methods of using thereof” (The Regents of the University of California, priority 2002, dated 2005).
Residues, ends and D or L forms follow the SMILES beside them. *: point of attachment. Cbz = O=C(OCc1ccccc1)*

Experiments:
[1] = tested on: BSp73AS and Mia PACA-2 cells; experiment: Caspase-3 activity and annexin staining with MG-132 (FIG. 14C); assay type: cell-based; settings: MG-132 20 μM
NF-κB [2] = experiment: NF-κB DNA binding activity (EMSA / gel shift); assay type: cell-based, human; settings: Mia PACA-2, 24 hours, no serum; polyphenols 100 μM, MG-132 20 μM
Experimental: In order to determine the role of activated NF-κB in the regulation of apoptosis caused by the polyphenolic compound, the following assay was conducted. BSp73AS cells were cultured for 6 hours and Mia PACA-2 cells were cultured in the absence of serum or growth factors for 24 hours in the absence (controls) or presence of rutin, quercetin, trans-resveratrol, or genistein, each at 100 μM and 20 μM proteosome inhibitor MG-132. Nuclear proteins were isolated and analyzed for NF-κB DNA binding activity with electrophoretic mobility shift assay (EMSA).
Specifically, aliquots of nuclear extracts with equal amount of protein, about 2 to about 10 μg, were mixed in 20 μl reactions with a buffer comprising 10 mM HEPES (pH 7.6), 50 mM KCl, 0.1 mM EDTA, 1 mM DTT, 10% (vol/vol) glycerol and 3 μg poly[d (I-C)]. After aliquots were equilibrated on ice for 5 minutes, binding reactions were stared by addition of 20-60,000 counts/min (20 fM) of ^32P-labeled DNA probes and allowed to proceed for 25-30 minutes at room temperature or up to 1 hour on ice. The oligonucleotide probe
containing the κB binding motif (underlined) was annealed to the complementary oligonucleotide with a 5′-G overhang and end-labeled using Klenow DNA polymerase I. The samples were electrophoresed at room temperature in 0.5×TBE buffer (1×TBE 89 mM Tris base, 89 mM boric acid and 2 mM EDTA) on nondenaturing 4.5% polyacrylamide gel at 200 V. Gels were dried and directly analyzed in the PhosphorImager (Molecular Dynamics, Sunnyvale, Calif.). The experiment was repeated twice.
To study the effects of combinations of DPI and polyphenolic compounds on serum-induced activation of NF-κB and protection from apoptosis, the following assay was conducted. Mia PACA-2 cells were cultured for 72 hours in the presence of serum with or without 100 μM trans-resveratrol, 15 μM DPI, a combination of trans-resveratrol, 100 μM genistein, or a combination of genistein and DPI. NF-κB binding activity was measured in nuclear extracts by gel shift assay as described above.
To determine the effects of LY29400 and DPI on NF-κB activation, Mia PACA-2 cells were cultured for 72 hours in the presence of serum and 15 μM DPI with or without 50 μM LY294002. NF-κB DNA binding activity was measured in nuclear extracts by gel shift assay as described above.

NF-κB [3] = experiment: NF-κB DNA binding activity (EMSA); assay type: cell-based, rat; settings: BSp73AS, 6 hours; polyphenols 100 μM, MG-132 20 μM
Experimental: In order to determine the role of activated NF-κB in the regulation of apoptosis caused by the polyphenolic compound, the following assay was conducted. BSp73AS cells were cultured for 6 hours and Mia PACA-2 cells were cultured in the absence of serum or growth factors for 24 hours in the absence (controls) or presence of rutin, quercetin, trans-resveratrol, or genistein, each at 100 μM and 20 μM proteosome inhibitor MG-132. Nuclear proteins were isolated and analyzed for NF-κB DNA binding activity with electrophoretic mobility shift assay (EMSA). Specifically, aliquots of nuclear extracts with equal amount of protein, about 2 to about 10 μg, were mixed in 20 μl reactions with a buffer comprising 10 mM HEPES (pH 7.6), 50 mM KCl, 0.1 mM EDTA, 1 mM DTT, 10% (vol/vol) glycerol and 3 μg poly[d (I-C)]. After aliquots were equilibrated on ice for 5 minutes, binding reactions were stared by addition of 20-60,000 counts/min (20 fM) of ^32P-labeled DNA probes and allowed to proceed for 25-30 minutes at room temperature or up to 1 hour on ice. The oligonucleotide probe containing the κB binding motif (underlined) was annealed to the complementary oligonucleotide with a 5′-G overhang and end-labeled using Klenow DNA polymerase I. The samples were electrophoresed at room temperature in 0.5×TBE buffer (1×TBE 89 mM Tris base, 89 mM boric acid and 2 mM EDTA) on nondenaturing 4.5% polyacrylamide gel at 200 V. Gels were dried and directly analyzed in the PhosphorImager (Molecular Dynamics, Sunnyvale, Calif.). The experiment was repeated twice.

CC(C)C[C@@H](C=O)NC(=O)[C@H](CC(C)C)NC(=O)[C@H](CC(C)C)NC(=O)OCc1ccccc1 [MG-132, reference compound] (Cbz-Leu-Leu-Leu-aldehyde)
caspase-3 activity [1]: small increase in caspase-3 activity | apoptosis (annexin staining) ([1]; polyphenols 100 μM): does not increase apoptosis rates to the same extent as trans-resveratrol | NF-κB activation (DNA binding) (NF-κB [2]): blocks NF-κB activation | NF-κB activation (DNA binding) (NF-κB [3]): blocks NF-κB activation
